Measurements published in patent US4544662A, “1'-Substituted-spiro[oxazolidine-5-3'-indoline]-2,2', 4-trione derivatives” (Imperial Chemical Industries, priority 1982, dated 1985).

Biological target: T1, aldose reductase (Bos taurus, UniProt P16116)
T1 construct: purified aldose reductase is isolated in known manner from bovine lenses; from tissue; host or cells: bovine lens
Test: in vitro inhibition of purified aldose reductase isolated from bovine lenses (spectrophotometric)
Type: biochemical
Details: purified bovine lens aldose reductase; reduction of glucose to sorbitol; read-out: IC50 (concentration necessary to produce 50% inhibition of enzymic activity)
Experimental: Thus, purified aldose reductase is isolated in known manner from bovine lenses. The percentage inhibition of this enzyme's ability in vitro to reduce aldoses to polyhydric alcohols, and particularly to reduce glucose to sorbitol, caused by a test compound is then determined using standard spectrophotometric methods.

| Compound | IC50 [nM] |
| --- | --- |
| Cc1cccc2c1N(Cc1ccc(Br)cc1F)C(=O)C21OC(=O)NC1=O (centres unmarked) [Example 6, 1'-(4-bromo-2-fluorobenzyl)-7'-methylspiro[oxazolidine-5,3'-indoline]-2,2',4-trione] | 20 |
| Cc1cc(Cl)cc2c1N(Cc1ccc(Cl)c(Cl)c1)C(=O)C21OC(=O)NC1=O (centres unmarked) [Example 7, 1'-(3,4-dichlorobenzyl)-5'-chloro-7'-methylspiro[oxazolidine-5,3'-indoline]-2,2',4-trione] | 25 |
